Data taken from ChEMBL document CHEMBL3885861, “Open TG-GATES”.

Species on record: Rattus norvegicus
Assay: Open TG-GATES - Regimen: Single
Format: toxicity, organism-based, Sprague-Dawley
Set-up: regimen Single, gender Male, age 6 weeks
Details: in vivo, po, 10 mg/kg, route gavage, dose level Middle; for APTT / Bas / Eos / Fbg / Hb / Ht / Lym / MCH / MCHC / MCV / Mono / Neu / PT / Plat / RBC / Ret / WBC: tissue Blood; for KIDNEY_L / KIDNEY_R / KIDNEY_TOTAL: tissue Kidney; for LIVER: tissue Liver; for A/G / ALP / ALT / AST / BUN / CRE / Ca / Cl / DBIL / GLC / IP / K / LDH / Na / PL / RALB / TBIL / TC / TG / TP / gamma-GTP: tissue Plasma

Structure (SMILES): Nc1c2c(nc3ccccc13)CCCC2 [TACRINE]
- TERMINAL_BW (3 h): 204.5 g
- APTT (3 h): 22.1 s
- Bas (3 h): 0%
- Eos (3 h): 0.8%
- Fbg (3 h): 297.8 mg/dL
- Hb (3 h): 13.3 g/dL
- Ht (3 h): 38.8%
- Lym (3 h): 70%
- MCH (3 h): 21.2 pg
- MCHC (3 h): 34.4%
- MCV (3 h): 61.5 fL
- Mono (3 h): 2.2%
- Neu (3 h): 26.8%
- PT (3 h): 16.5 s
- Plat (3 h): 123.9 x10_4/uL
- RBC (3 h): 630.4 x10_4/ul
- Ret (3 h): 8.5%
- WBC (3 h): 68 x10_2/uL
- KIDNEY_L (3 h): 0.9 g
- KIDNEY_R (3 h): 0.9 g
- KIDNEY_TOTAL (3 h): 1.8 g
- LIVER (3 h): 9.4 g
- A/G (3 h): 1.3
- ALP (3 h): 1472.8 IU/L
- ALT (3 h): 45 IU/L
- AST (3 h): 90.4 IU/L
- BUN (3 h): 11.8 mg/dL
- CRE (3 h): 0.2 mg/dL
- Ca (3 h): 10.6 mg/dL
- Cl (3 h): 106.4 meq/L
- DBIL (3 h): 0.006 mg/dL
- GLC (3 h): 213.4 mg/dL
- IP (3 h): 8.7 mg/dL
- K (3 h): 3.7 meq/L
- LDH (3 h): 205.8 IU/L
- Na (3 h): 141.8 meq/L
- PL (3 h): 140.4 mg/dL
- RALB (3 h): 3.2 g/dL
- TBIL (3 h): 0.03 mg/dL
- TC (3 h): 74.6 mg/dL
- TG (3 h): 66.6 mg/dL
- TP (3 h): 5.8 g/dL
- gamma-GTP (3 h): 1 IU/L
- TERMINAL_BW (6 h): 199.6 g
- APTT (6 h): 19.8 s
- Bas (6 h): 0%
- Eos (6 h): 0.6%
- Fbg (6 h): 317.2 mg/dL
- Hb (6 h): 13.6 g/dL
- Ht (6 h): 39.5%
- Lym (6 h): 75.4%
- MCH (6 h): 21 pg
- MCHC (6 h): 34.4%
- MCV (6 h): 60.8 fL
- Mono (6 h): 2%
- Neu (6 h): 21.2%
- PT (6 h): 15.6 s
- Plat (6 h): 119.2 x10_4/uL
- RBC (6 h): 649.6 x10_4/ul
- Ret (6 h): 7.8%
- WBC (6 h): 74.9 x10_2/uL
- KIDNEY_L (6 h): 0.9 g
- KIDNEY_R (6 h): 0.9 g
- KIDNEY_TOTAL (6 h): 1.8 g
- LIVER (6 h): 8.5 g
- A/G (6 h): 1.3
- ALP (6 h): 1669.4 IU/L
- ALT (6 h): 41.8 IU/L
- AST (6 h): 82.4 IU/L
- BUN (6 h): 10.6 mg/dL
- CRE (6 h): 0.2 mg/dL
- Ca (6 h): 10.6 mg/dL
- Cl (6 h): 107.4 meq/L
- DBIL (6 h): 0.002 mg/dL
- GLC (6 h): 201.2 mg/dL
- IP (6 h): 8.8 mg/dL
- K (6 h): 4.4 meq/L
- LDH (6 h): 290.6 IU/L
- Na (6 h): 141.8 meq/L
- PL (6 h): 161 mg/dL
- RALB (6 h): 3.1 g/dL
- TBIL (6 h): 0.028 mg/dL
- TC (6 h): 82.2 mg/dL
- TG (6 h): 50.8 mg/dL
- TP (6 h): 5.5 g/dL
- gamma-GTP (6 h): 1 IU/L
- TERMINAL_BW (9 h): 197 g
- APTT (9 h): 21.5 s
- Bas (9 h): 0%
- Eos (9 h): 1%
- Fbg (9 h): 312.4 mg/dL
- Hb (9 h): 13.4 g/dL
- Ht (9 h): 38.9%
- Lym (9 h): 76.2%
- MCH (9 h): 21.4 pg
- MCHC (9 h): 34.5%
- MCV (9 h): 61.9 fL
- Mono (9 h): 2.2%
- Neu (9 h): 20%
- PT (9 h): 15.9 s
- Plat (9 h): 119.1 x10_4/uL
- RBC (9 h): 628.6 x10_4/ul
- Ret (9 h): 7.5%
- WBC (9 h): 74.6 x10_2/uL
- KIDNEY_L (9 h): 0.9 g
- KIDNEY_R (9 h): 0.9 g
- KIDNEY_TOTAL (9 h): 1.8 g
- LIVER (9 h): 8.3 g
- A/G (9 h): 1.3
- ALP (9 h): 1332.6 IU/L
- ALT (9 h): 42.6 IU/L
- AST (9 h): 86.8 IU/L
- BUN (9 h): 11.8 mg/dL
- CRE (9 h): 0.1 mg/dL
- Ca (9 h): 10.7 mg/dL
- Cl (9 h): 107.4 meq/L
- DBIL (9 h): 0.004 mg/dL
- GLC (9 h): 183.8 mg/dL
- IP (9 h): 9.7 mg/dL
- K (9 h): 4.2 meq/L
- LDH (9 h): 186.8 IU/L
- Na (9 h): 142.2 meq/L
- PL (9 h): 137.8 mg/dL
- RALB (9 h): 3.1 g/dL
- TBIL (9 h): 0.026 mg/dL
- TC (9 h): 77 mg/dL
- TG (9 h): 43.6 mg/dL
- TP (9 h): 5.5 g/dL
- gamma-GTP (9 h): 1 IU/L
- TERMINAL_BW (24 h): 217.1 g
- APTT (24 h): 21.1 s
- Bas (24 h): 0%
- Eos (24 h): 1%
- Fbg (24 h): 305 mg/dL
- Hb (24 h): 13.5 g/dL
- Ht (24 h): 39.3%
- Lym (24 h): 79%
- MCH (24 h): 21.2 pg
- MCHC (24 h): 34.4%
- MCV (24 h): 61.6 fL
- Mono (24 h): 3%
- Neu (24 h): 15.8%
- PT (24 h): 15.9 s
- Plat (24 h): 116.9 x10_4/uL
- RBC (24 h): 638 x10_4/ul
- Ret (24 h): 7.4%
- WBC (24 h): 98.6 x10_2/uL
- KIDNEY_L (24 h): 1 g
- KIDNEY_R (24 h): 1 g
- KIDNEY_TOTAL (24 h): 2 g
- LIVER (24 h): 9.7 g
- A/G (24 h): 1.3
- ALP (24 h): 1669.4 IU/L
- ALT (24 h): 40.4 IU/L
- AST (24 h): 77.2 IU/L
- BUN (24 h): 17 mg/dL
- CRE (24 h): 0.2 mg/dL
- Ca (24 h): 11 mg/dL
- Cl (24 h): 106 meq/L
- DBIL (24 h): 0.004 mg/dL
- GLC (24 h): 183 mg/dL
- IP (24 h): 7.9 mg/dL
- K (24 h): 4.3 meq/L
- LDH (24 h): 229 IU/L
- Na (24 h): 141.4 meq/L
- PL (24 h): 161.6 mg/dL
- RALB (24 h): 3.1 g/dL
- TBIL (24 h): 0.022 mg/dL
- TC (24 h): 81 mg/dL
- TG (24 h): 97 mg/dL
- TP (24 h): 5.5 g/dL
- gamma-GTP (24 h): 1 IU/L
